Data: patent US12516295B2, “Generation of pancreatic progenitor cells and beta cells from human pluripotent stem cells” (The Penn State Research Foundation, priority 2018, dated 2026)

Assays:
H1 hESCs = test: Growth-factor-free differentiation of hPSCs to SOX17+ DE cells, SOX17 expression by flow cytometry; assay type: cell-based, human; conditions: for effect on DE differentiation (result in words): H1 hESCs differentiated with CH, CH+DM or CH+A83-01, day 4 SOX17 by flow cytometry (FIG. 1F); for percentage of cells expressing SOX17: flow cytometry (FIG. 1C); for SOX17+ cells: H1 hESCs, dynamics (FIG. 1E; CH in presence or absence of DM)
Protocol: (§1) FIG. 1. Growth-factor-free differentiation of SOX17+ DE cells from hPSCs via CH and DM treatment. (A) Human 19-9-11 iPSCs were treated with 6 μM CH at day 0. After treatment, cells were collected from 3 to 21 hours (T) and RNA-seq was performed. The bars for each set from left to right are: T0, T3, T6, T9, T12, T15, T18, T21. (B) Schematic of protocol for defined, growth-factor-free differentiation of hPSCs to SOX17+ cells via treatment with CH and DM. (C-D) H1 hESCs were cultured as indicated in 2B with 1 μM DM plus different CH concentration, ranging from 2 to 10 μM. (C) On day 4 of differentiation, cells were analyzed for SOX17 expression by flow cytometry. (D) Cells were immunostained with a SOX17 antibody on day 4 of differentiation under 6 μM CH plus 1 μM DM treatment. (E) H1 hESCs were differentiated with CH in the presence or absence of DM. From day 1 to day 4, cells were analyzed for SOX17 expression by flow cytometry. (F) H1 hESCs were differentiated with CH, CH plus DM or CH plus A83-01. On day 4 of differentiation, cells were analyzed for SOX17 expression by flow cytometry.
Stage 1: On day 0, medium was changed with RPMI supplemented with 1 μM Dorsomorphin (DM) and 2-10 μM CHIR99021(CH). At day 1-4, medium was changed with RPMI supplemented with B-27 without insulin.
Cells were dissociated into single cells with Accutase for 10 min and then fixed with 1% paraformaldehyde for 30 min at room temperature and stained with primary and secondary antibodies in PBS plus 0.1% Triton X-100 and 0.5% BSA. Data were collected on a BD ACCURI C6 PLUS flow cytometer (BD Biosciences) and analyzed using FlowJo 10. FACS gating was based on the corresponding isotype antibody control.
Here we describe a differentiation protocol without using any growth factors. We first initiated DE differentiation by treating hPSCs with CH+DM. To determine optimal CH concentration for DE differentiation, H1 cells were treated by 2 to 10 μM CH in RPMI for 24 hours, followed by 3 days culture in RPMI with 2% B-27 minus insulin supplement. We analyzed the percentage of SOX17+ cells on day 4 of differentiation via flow cytometry. […] The optimal DE differentiation was achieved when hPSCs were treated by 4 or 6 μM CH (FIG. 1C). On day 4, 85% of cells expressing SOX17 when cells were treated with 6 μM CH plus 1 μM DM, whereas the percentage of cells expressing SOX17 decreased to 20% when treated with 10 μM CH plus 1 μM DM (FIG. 1C). […] Next, the dynamics of DE differentiation was investigated by analyzing SOX17 expression from day 1 to day 4. During differentiation, SOX17+ cells increased from 0% on day 1 to 78% on day 4, indicating DE was gradually developed (FIG. 1E). Furthermore, to evaluate whether our novel DE differentiation protocol depends on endogenous TGFbeta pathway, we differentiated H1 hESCs with CH, CH+DM, and CH+A83-01 (a TGFbeta inhibitor).

19-9-11 iPSCs = test: RNA-seq expression profile during CH induced differentiation; assay type: cell-based, human; conditions: 6 μM CH
Protocol: as §1
To understand RNA expression profile during CH induced differentiation, we collected cells following CH treatment every three hours for a total of eight different time points after differentiation (FIG. 1A).

Row | Compound | effect on DE differentiation (result in words) (H1 hESCs) | Nodal expression (19-9-11 iPSCs; 21 hours after treatment, RNA-seq) | RNA expression of several components in the TGF-β signaling pathway (19-9-11 iPSCs; samples every three hours over 21 hours, RNA-seq (FIG. 1A)) | Sox17+ cells generated (H1 hESCs; 10 μM CH treatment (discussion)) [%] | Sox17+ cells generated (H1 hESCs; 4 or 6 μM CH treatment (discussion)) | DE differentiation (result in words) (H1 hESCs; H1 cells, 2 to 10 μM CH in RPMI for 24 hours, SOX17+ cells on day 4) | percentage of cells expressing SOX17 (H1 hESCs; H1 cells, day 4, 6 μM CH plus 1 μM DM) [%] | percentage of cells expressing SOX17 (H1 hESCs; H1 cells, day 4, 10 μM CH plus 1 μM DM) [%] | SOX17+ cells (H1 hESCs; day 1 of differentiation) [%] | SOX17+ cells (H1 hESCs; day 4 of differentiation) [%]
1 | Cc1cccc(-c2nn(C(=S)Nc3ccccc3)cc2-c2ccnc3ccccc23)n1 [A83-01] | abolished DE differentiation |  |  |  |  |  |  |  |  | 
2 | Cc1cnc(-c2cnc(NCCNc3ccc(C#N)cn3)nc2-c2ccc(Cl)cc2Cl)[nH]1 [CH, 6-[[2-[[4-(2,4-Dichlorophenyl)-5-(5-methyl-1H-imidazol-2-yl)-2-pyrimidinyl]amino]ethyl]amino]-3-pyridinecarbonitrile] |  | upregulated | increased | 6 | more than 74% | induced DE differentiation in a dose-dependent manner | 85 | 20 | 0 | 78
3 | c1cc(-c2cnn3cc(-c4ccc(OCCN5CCCCC5)cc4)cnc23)ccn1 [DM, 6-[4-(2-Piperidin-1-ylethoxy)phenyl]-3-pyridin-4-ylpyrazolo[1,5-a]pyrimidine] | promoted this differentiation |  |  |  |  |  |  |  |  | 
